Test results: patent US20070043110A1, “Nontoxic potentiation sensitization of ovarian cancer therapy by supplementary treatment with vitamins” (Summa Health System, priority 2001, published 2007)
Where a name gives a salt, the structure may show the parent alone. Read-outs that look alike come from different tables or passages of the source.

Experiments:
[1] = tested on: murine transplantable liver tumor (TLT); conditions: cited from earlier work
[2] = tested on: SKOV3; test: Antitumor activity by MTT assay, SKOV3; conditions: Homo sapiens
From the text: (§1) The FIC index was used to evaluate the synergism of the vitamins. A FIC<1.0 indicates the combination is synergistic, while a FIC>1.0 indicates the combination is antagonistic. A FIC=1.0 indicates the combination is indifferent. […] During this time, two requests for humanitarian intervention were made.

[3] = tested on: Tera-2; test: Antitumor activity by MTT assay, Tera-2; conditions: Homo sapiens
From the text: as §1

[4] = tested on: MDAH 2774 cells; test: Antitumor activity by MTT assay, MDAH 2774
From the text: as §1

[5] = tested on: RT4; test: Antitumor activity by MTT assay, RT4; conditions: Homo sapiens
From the text: as §1

[6] = tested on: Caki-1; test: Antitumor activity by MTT assay, Caki-1; conditions: Homo sapiens
From the text: as §1

[7] = tested on: T24; test: Antitumor activity by MTT assay, T24; conditions: Homo sapiens
From the text: as §1

[8] = tested on: MDA-MB-231; test: Antitumor activity by MTT assay, MDA-MB-231; conditions: Homo sapiens
From the text: as §1

[9] = tested on: advanced cancer; conditions: 10 grams given orally; cited from earlier work
[10] = tested on: DU145; test: Antitumor activity by MTT assay, DU145; conditions: Homo sapiens
From the text: as §1

[11] = tested on: prostate cancer; test: Randomized trial in prostate cancer patients, serum HCY and PSA; type: in vivo, human; parameters: Variation of Serum HCY (mean ± SD): unit not given here; conditions: for difference in serum levels of homocysteine and PSA versus control group: individual vitamin treatment groups (Group 2 or Group 3) vs Group 4
Experimental: Recently a prospective, randomized trial was performed with 20 prostate cancer patients who had pathologically proven prostate cancer in advanced stages (M1) with osseous metastasis and resistance to hormone therapy. The patients were randomly distributed in four groups of five patients each. […] In Group 2, ascorbic acid was omitted. In Group 3, menadione was omitted. A placebo was administered to patients of Group 4. Only two treatment courses were tested in this study so that the immediate effects of the vitamins in a clinical model could be determined and compared to the immediate induction of autoschizis elicited by the vitamin combination in preclinical models. Homocysteine (a good marker of the number of tumor cells with sensitivity for early detection of tumor cell death induced by treatments) and prostate specific antigen (PSA) assays were performed in the four groups to obtain information about the tumor cell death induced by the treatments. Serum homocysteine (HCY) and PSA were measured the first day of each week (day 1, 8, 15, 22, 29, 36, and […] of the study). […] This fall in serum HCY was highly significant (p<<0.01) in all weekly measures after the first series (day 8-42). […] The reasons for the initial increase in serum PSA levels are unknown.

[12] = tested on: PC3; test: Antitumor activity by MTT assay, PC3; conditions: Homo sapiens
From the text: as §1

[13] = tested on: terminal cancer; conditions: cited from earlier work
[14] = tested on: SCaBER; test: Antitumor activity by MTT assay, SCaBER; conditions: Homo sapiens
From the text: as §1

[15] = tested on: CWR22; test: Antitumor activity by MTT assay, CWR22; conditions: Homo sapiens
From the text: as §1

[16] = 10 to 100 g twice per week; cited from earlier work
[17] = tested on: ES-2 cell line; test: Cytotoxicity (CD50), ES-2; type: cell-based; conditions: Homo sapiens
From the text: as §1

[18] = tested on: TCCSUP; test: Antitumor activity by MTT assay, TCCSUP; conditions: Homo sapiens, TCC-SUP
From the text: as §1

[19] = tested on: J82; test: Antitumor activity by MTT assay, J82; conditions: Homo sapiens
From the text: as §1

[20] = tested on: CAOV-3 cell line; test: Cytotoxicity (CD50), CAOV-3; type: cell-based; conditions: Homo sapiens
From the text: as §1

[21] = mouse, in vivo
[22] = tested on: tumor growth; conditions: cited from earlier work
[23] = tested on: advanced lung cancer; conditions: cited from earlier work
[24] = mice; cited from earlier work
[25] = 400-500 mg/day over 3-5 consecutive days; cited from earlier work
[26] = tested on: hepatoma; conditions: weekly i.p. 10 mg/2 mL for 4 weeks, cited from earlier work
[27] = bisulfite form; cited from earlier work
[28] = cited from earlier work
[29] = tested on: gastrointestinal cancer; conditions: VK3 with mitomycin C; 43 patients; cited from earlier work
[30] = read-out: Vitamins Alone, Vit C 50% Cytotoxic Dose
[31] = assay day 8, oral 7 day courses from day 1 and day 22, VC 5 g/m^2/day, VK3 50 mg/m^2/day, pretreatment = 0
[32] = read-out: Vitamins Alone, Vit K3 50% Cytotoxic Dose

CC[C@]1(O)C[C@H]2CN(CCc3c([nH]c4ccccc34)[C@@](C(=O)OC)(c3cc4c(cc3OC)N(C=O)[C@H]3[C@@](O)(C(=O)OC)[C@H](OC(C)=O)[C@]5(CC)C=CCN6CC[C@]43[C@@H]65)C2)C1 [Oncovin, vincristine sulfate]
MST ([1]; second study, each agent alone, Oncovin 0.3 mg/kg): 19.0 days

O=C1O[C@H]([C@@H](O)CO)C([O-])=C1O.[Na+] [Vitamin C, Sodium Ascorbate]
IC50 ([2]; SK-OV-3, read-out: Vitamins Alone, Vit C 50% Cytotoxic Dose): 755 ± 24.1 µM | IC50 [3, 30]: 1312 ± 10 µM | IC50 ([4]; Homo sapiens, MDAH 2774, read-out: Vitamins Alone, Vit C 50% Cytotoxic Dose, MDAH, Ovarian): 1530 µM | IC50 ([4]; read-out: Vitamins Alone, Vit C 50% Cytotoxic Dose, MDAH, Ovarian): 1520 ± 29 µM | increased lifespan ([1]; VC alone 1 g/Kg body weight): 14.7% | IC50 ([5]; RT-4, read-out: Vitamins Alone, Vit C 50% Cytotoxic Dose): 2430 ± 28 µM | IC50 ([6]; CAKI-1, read-out: Vitamins Alone, Vit C 50% Cytotoxic Dose): 376 ± 1 µM | IC50 ([7]; T-24, read-out: Vitamins Alone, Vit C 50% Cytotoxic Dose): 1490 ± 141 µM | IC50 ([8]; MDA-MB-231, read-out: Vitamins Alone, Vit C 50% Cytotoxic Dose): 466 ± 3.23 µM | effectiveness of oral Vitamin C [9]: no benefits | IC50 ([10]; DU-145, read-out: Vitamins Alone, Vit C 50% Cytotoxic Dose): 2460 ± 28 µM | Variation of Serum HCY (mean ± SD) [11, 31]: 0.59 ± 0.508 | Variation of Serum HCY (mean ± SD) ([11]; assay day 15): 0.74 ± 0.349 | Variation of Serum HCY (mean ± SD) ([11]; assay day 22): 1.24 ± 0.448 | Variation of Serum HCY (mean ± SD) ([11]; assay day 29): 1.45 ± 0.498 | Variation of Serum HCY (mean ± SD) ([11]; assay day 36): 1.32 ± 0.448 | Variation of Serum HCY (mean ± SD) ([11]; assay day 42): 1.34 ± 0.486 | difference in serum levels of homocysteine and PSA versus control group [11]: non-significant difference | IC50 ([12]; PC-3, read-out: Vitamins Alone, Vit C 50% Cytotoxic Dose): 2360 ± 39 µM | mean survival time ([13]; 100 terminal cancer patients, 10 g/day i.v. for 10 days then 10 g/day orally, controls 50 days): more than 210 days | mean survival time ([13]; six ovarian cancer patients, controls 71 days): 148 days | IC50 [14, 30]: 327 ± 6 µM | IC50 ([15]; CWR22, read-out: Vitamins Alone, Vit C 50% Cytotoxic Dose): 254 ± 1.02 µM | remissions with high doses of i.v. VC [16]: a small number of complete remissions | IC50 ([17]; read-out: CD50, VC alone): 197 µM | IC50 [18, 30]: 297 ± 7 µM | IC50 ([19]; J82, read-out: Vitamins Alone, Vit C 50% Cytotoxic Dose): 376 ± 1 µM | IC50 ([20]; Caov-3, read-out: CD50, vitamin C alone): 1360 µM

CC1=CC(=O)c2ccccc2C1=O [Vitamin K3, 2-Methyl-1,4-Naphthoquinone]
IC50 ([2]; SK-OV-3, read-out: Vitamins Alone, Vit K3 50% Cytotoxic Dose): 22 ± 1.93 µM | IC50 [3, 32]: 21.8 ± 0.73 µM | IC50 ([4]; Homo sapiens, MDAH 2774, read-out: Vitamins Alone, Vit K3 50% Cytotoxic Dose, MDAH, Ovarian): 41.8 µM | increased lifespan ([1]; VK3 alone 0.01 g/Kg body weight): 1.07% | IC50 ([5]; RT-4, read-out: Vitamins Alone, Vit K3 50% Cytotoxic Dose): 12.8 ± 0.03 µM | toxicity to livers [21]: no toxicity | inhibition of tumor growth ([22]; VK3 225 mg/kg/day with methotrexate): 84% | inhibition of tumor growth ([22]; menadione 250 mg/kg/day with methotrexate 0.75 mg/kg/day): 99% | circulating levels of VK3 that induce synergism with methotrexate ([22]; rat, in vivo): ≥ 1 µM | IC50 ([6]; CAKI-1, read-out: Vitamins Alone, Vit K3 50% Cytotoxic Dose): 19.3 ± 0.33 µM | IC50 ([7]; T-24, read-out: Vitamins Alone, Vit K3 50% Cytotoxic Dose): 13.1 ± 0.01 µM | IC50 ([8]; MDA-MB-231, read-out: Vitamins Alone, Vit K3 50% Cytotoxic Dose): 7.1 ± 0.21 µM | median survival ([23]; VK3 in combination with mitomycin C, 23 patients): 5.5 months | patients exhibiting hematologic toxicity ([23]; VK3 with mitomycin C): 30% | patients exhibiting some tumor regression ([23]; VK3 with mitomycin C): 26% | IC50 ([10]; DU-145, read-out: Vitamins Alone, Vit K3 50% Cytotoxic Dose): 12.9 ± 0.81 µM | Variation of Serum HCY (mean ± SD) [11, 31]: 0.468 ± 0.362 | Variation of Serum HCY (mean ± SD) ([11]; assay day 15): 0.59 ± 0.227 | Variation of Serum HCY (mean ± SD) ([11]; assay day 22): 0.68 ± 0.210 | Variation of Serum HCY (mean ± SD) ([11]; assay day 29): 0.76 ± 0.341 | Variation of Serum HCY (mean ± SD) ([11]; assay day 36): 1.12 ± 0.400 | Variation of Serum HCY (mean ± SD) ([11]; assay day 42): 1.3 ± 0.432 | difference in serum levels of homocysteine and PSA versus control group [11]: non-significant difference | IC50 ([12]; PC-3, read-out: Vitamins Alone, Vit K3 50% Cytotoxic Dose): 11.4 ± 0.13 µM | LD50 [24]: 500 mg/kg | toxicity in phase I clinical trials [25]: without any appreciable toxicity | IC50 [14, 32]: 9.7 ± 0.15 µM | IC50 ([15]; CWR22, read-out: Vitamins Alone, Vit K3 50% Cytotoxic Dose): 4.1 ± 0.33 µM | long term survivors [26]: 5 out of 16 | survival ([26]; control rats 17 days): 60 days | IC50 ([17]; read-out: CD50, VK alone): 25 µM | solubility [27]: water soluble | IC50 [18, 32]: 6.3 ± 0.06 µM | IC50 ([19]; J82, read-out: Vitamins Alone, Vit K3 50% Cytotoxic Dose): 8.2 ± 0.15 µM | IC50 ([20]; Caov-3, read-out: CD50, VK3 alone): 22 µM | maximum tolerated dose of VK3 ([28]; 48-hour intravenous infusion, followed by mitomycin C 15 mg/m2 every four weeks): 2.5 g/m^2 | tolerability ([28]; i.v., in conjunction with mitomycin C, Phase I and Phase II trials): well tolerated | hemolysis at maximum tolerated dose ([28]; with mitomycin C every four weeks): no hemolysis | response to therapy [29]: no objective response

O=P1(N(CCCl)CCCl)NCCCO1 (stereo not shown) [cyclophosphamide]
ILS ([1]; single dose of cyclophosphamide 80 mg/kg body weight): 23% | MST ([1]; single dose of cyclophosphamide 80 mg/kg body weight, untreated 16.8 days): 20.6 days
